{"source": "patent US6087376A", "about": "(priority 1998, dated 2000)", "key": {"[1]": {"system": "mouse striatal synaptosomes", "conditions": "cited from earlier work"}, "[2]": {"system": "rat striatal synaptic vesicles", "experiment": "[3H]DA release from striatal synaptic vesicles preloaded with [3H]DA", "format": "biochemical", "experimental": "The homogenate was then centrifuged at 2,000×g for 10 min at 4° C. and the resulting supernatant was centrifuged at 10,000×g for 30 min at 4° C. Synaptosomes (buffy coat) were separated from the underlying mitochondria and cellular debris (reddish pellet) by gentle swirling in 2 mL of 0.32 M sucrose. The enriched synaptosome fraction (2.0 mL) was subjected to osmotic shock by addition of 7 mL distilled H2 0 and was homogenized with 5 up and down strokes of the TEFLON pestle. The osmolarity was restored by the addition of 900 μL of 0.25 M HEPES and 900 μL of 1.0 M neutral potassium-tatrate buffer (pH 7.5) followed by a 20 min centrifugation (20,000×g at 4° C.). The supernatant was then centrifuged for 60 min (55,000×g at 4° C.).\nThe final vesicle pellet from a pool of striata from three rats was resuspended in 3 mL of release assay buffer (in mM: 25 HEPES, 100 L-(+)-tartaric acid dipotassium salt, 0.05 EGTA, 0.10 EDTA, 2 Mg^2+ -ATP, and 1.7 ascorbic acid, pH 7.4) and then incubated with [^3 H]DA (0.3 μM) for 8 min at 37° C. […] [^3 H]DA efflux represents the net result of events, i.e., release and reuptake. […] The reaction was terminated by addition of 2.5 mL of ice-cold assay buffer containing 2 mM MgSO4. Samples were rapidly filtered through Whatman GF/F filters using the Brandel cell harvester.\nThe amount of drug-induced [^3 H]DA release from synaptic vesicles was calculated by subtracting the amount of tritium remaining in the drug-exposed samples from that remaining in the control samples (in the absence of drug). The amount of drug-induced [^3 H]DA release was then divided by the amount of tritium remaining in the control samples and was expressed as a percentage of control.\nConcentration-response and kinetic data were analyzed by repeated-measures one-way ANOVA and between-group one-way ANOVA, respectively. When appropriate, Fisher's least significant difference post hoc test was used to determine significant differences between treatment means. IC50 and EC50 values were obtained by an iterative nonlinear least-squarescurve-fitting program (GraphPAD-PRIZM: GraphPAD, San Diego, Calif., U.S.A.) for one-site competition and sigmoidal concentration response, respectively. The t1/2 was obtained by an iterative nonlinear least-squares curve-fitting program for one-phase decay. KD and Bmax values were obtained by Scatchard analysis using an iterative linear least-squares curve-fitting program."}, "[3]": {"system": "tachycardia and hypertension", "conditions": "in vivo; cited from earlier work"}, "[4]": {"system": "rat striatal slices", "experiment": "Endogenous DA and DOPAC content in striatal slices following superfusion with lobeline", "format": "cell-based", "experimental": "Data are presented as mean±S.E. ng/mg protein. *P<0.05, different from control, P<0.05, **P<0.001, different from control; Dunnett's post hoc test. n=8 rats.\nAt the end of the superfusion experiment, slices were processed in the endogenous DA and DOPAC content assay described below.\nAn aliquot (500 μL) of 0.1 M perchloric acid (pH 1.0) containing 0.14-0.29 μM 3,4-dihydroxybenzylamine hydrobromide (DHBA, internal standard) was added to 100 mg of striatum and the mixture was sonicated with an Ultrasonic Processor (40-Watt Model, Sonics & Materials, Danbury, Conn.). The homogenate was centrifuged at 30,000×g for 10 min at 4° C., and the supernatant was filtered (0.2 μm nylon membrane). An aliquot (50 μL) of the filtrate (1:1, 1:50, 1:100, 1:200 or 1:500 dilution with 0.1 M perchloric acid) was injected onto the high pressure liquid chromatograph with electrochemical detection (HPLC-EC) system. The HPLC-EC system consisted of syringe loading injector (Model 7725, Rheodyne L. P., Cotati, Calif.), Beckman Model 116 HPLC pump (Beckman, Fullerton, Calif.), ESA ODS ultrasphere C18 reverse-phase column ([…]×75 mm, 3 micron particle size, ESA, Bedford, Mass.), and an ESA 5100A coulometric electrochemical detector with a model 5011 detector cell (E1=+0.05 V, E2=+0.32 V). The eluent was 6% acetonitrile, 10 μM EDTA, 1.4 mM 1-octane-sulfonic acid and 76 mM sodium phosphate monobasic (pH 3.1). All separations were performed at room temperature at a flow rate of 1 ml/min. Complete separation of DA and DOPAC and reequilibration of the system required 9 min. The retention time of DA, DOPAC and DHBA standards was used to identify the relevant peak. Peak heights were used to calculate the detected amount of compound based on standard curves. The detection limit of DA and DOPAC was 0.2 and 0.05 pg/50 μL injected, respectively. Recovery of internal standard was routinely 75%."}, "[5]": {"system": "anxiolytic activity", "conditions": "in vivo; cited from earlier work"}, "[6]": {"molecular_target": "T1, plasma membrane DA transporter (rat striatal synaptosomes) (Rattus norvegicus, UniProt P23977)", "T1 construct": "from tissue; host or cells: rat striatum, synaptosomes", "T1 sequence (P23977 whole entry)": "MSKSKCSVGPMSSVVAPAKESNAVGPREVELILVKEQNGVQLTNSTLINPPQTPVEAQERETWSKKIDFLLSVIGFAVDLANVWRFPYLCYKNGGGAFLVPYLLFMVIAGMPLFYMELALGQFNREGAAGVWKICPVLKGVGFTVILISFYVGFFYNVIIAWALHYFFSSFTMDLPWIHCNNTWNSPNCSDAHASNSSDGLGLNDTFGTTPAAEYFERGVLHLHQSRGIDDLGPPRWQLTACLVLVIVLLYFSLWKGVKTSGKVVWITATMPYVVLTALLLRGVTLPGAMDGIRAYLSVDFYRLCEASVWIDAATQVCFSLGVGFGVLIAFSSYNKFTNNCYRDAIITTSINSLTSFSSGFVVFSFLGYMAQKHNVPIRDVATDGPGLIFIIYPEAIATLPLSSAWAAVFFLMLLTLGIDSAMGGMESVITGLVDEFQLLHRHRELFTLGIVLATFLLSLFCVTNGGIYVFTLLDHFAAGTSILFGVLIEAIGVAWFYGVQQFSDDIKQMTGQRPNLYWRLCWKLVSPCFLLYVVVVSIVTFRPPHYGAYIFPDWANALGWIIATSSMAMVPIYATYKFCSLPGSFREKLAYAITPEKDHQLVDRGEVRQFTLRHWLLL", "experiment": "[3H]DA uptake assay, striatal synaptosomal preparation", "format": "biochemical", "conditions": "read-out: IC50, inhibition of [3H]DA uptake into synaptosomes", "experimental": "The homogenate was centrifuged at 2,000×g for 10 min at 4° C. […] The final protein concentration was 400 μg/mL. The assay was performed in duplicate in a total volume of 500 μL. […] The incubation continued for 10 min at 34° C. The reaction was terminated by the addition of 3 mL cold assay buffer (without 1 mM catechol). Samples were rapidly filtered through a Whatman GF/B filter using a Brandel cell harvester (model MP-43 RS, Biochemical Research and Development Laboratories, Inc., Gaithersburg, Md.) and the filter was subsequently washed 3 times with 4 mL of cold assay buffer containing 1 mM catechol. Filters were previously soaked for 2 hrs in the cold assay buffer containing 1 mM catechol. […] Filters were placed into scintillation vials, 10 mL of scintillation cocktail was added and radioactivity was determined by scintillation spectrometry.\nInhibition of synaptosomal and vesicular [^3 H]DA uptake were analyzed by repeated-measures, one-way ANOVA, and by an iterative nonlinear least-squares curve-fitting program (GraphPAD-PRIZM; GraphPAD, San Diego, Calif.) to obtain IC50 values. Dunnett's post hoc test was used to compare treatment means to a single control mean. Also, Duncan's New Multiple Range Test or Fisher's LSD post hoc analysis were used to compare pairs of treatment means. […]"}}, "note": "Where “and” joins values, the source holds several entries; their conditions need not be identical. Identical values can stand only once."}
{"smiles": "CN1[C@@H](CC(=O)c2ccccc2)CCC[C@H]1C[C@H](O)c1ccccc1", "note": "[Lobeline, 2-[G-(β-hydroxyphenethyl)-1-methyl-2-piperidyl]-acetophenone]", "values": [{"measurement": "DA release from superfused striatal synaptosomes", "setting": "[1]", "value": "increase DA release"}, {"measurement": "lowest concentration to evoke [3H]DA release from vesicles", "setting": "[2]; 8 min, 37° C.", "value": 10, "unit": "µM"}, {"measurement": "EC50", "setting": "[2]; 8 min, 37° C., read-out: EC50, evoked [3H]DA release from synaptic vesicles", "value": "25.3 µM and 25 µM"}, {"measurement": "t1/2 of [3H]DA efflux from vesicles", "setting": "[2]; drug at 10 times the EC50", "value": "1.58 ± 0.09", "unit": "min"}, {"measurement": "cardiovascular effects", "setting": "[3]", "value": "tachycardia and hypertension"}, {"measurement": "DOPAC overflow from rat striatal slices", "setting": "[4]", "value": "DOPAC overflow from rat striatal slices is observed"}, {"measurement": "effect on DA or DOPAC content in superfused slices", "setting": "[4]; lobeline 0.1-10 μM, 60 min", "value": "did not alter DA or DOPAC content"}, {"measurement": "effect on endogenous DA content in superfused slices", "setting": "[4]; lobeline 30-100 μM, 60 min", "value": "significantly depleted endogenous DA content"}, {"measurement": "effect on endogenous DOPAC content in superfused slices", "setting": "[4]; lobeline 30-100 μM, 60 min", "value": "increased DOPAC content"}, {"measurement": "anxiolytic activity", "setting": "[5]", "value": "anxiolytic activity"}, {"measurement": "IC50", "setting": "[6]", "value": "80 ± 12", "unit": "µM"}]}
